Laboratory results: publication PMC10233092, “Selective Janus kinase 1 inhibition resolves inflammation and restores hair growth offering a viable treatment option for alopecia areata” (Skin Health and Disease, 2023)
Where two headings read alike, the source gives them in different places. Each block holds one compound with its values, some of them ahead of it.

What was measured:
[1] = test system: Human Peripheral Blood Mononuclear Cells (PBMCs); test: Cytokine release from anti-CD3-stimulated human PBMCs; assay type: cell-based; conditions: anti-CD3, 40-48h, 4 healthy donors, linear regression
Protocol: Human Peripheral Blood Mononuclear Cells (PBMCs) were isolated by Sepmate technique (Stemcell Technologies) from heparinized venous blood from healthy volunteers. Primary human CD8^+ T‐cells were further isolated using a CD8^+ T cell Isolation Kit according to protocol (Miltenyi Biotec). Experiments were approved by the local ethical committee in Gothenburg (033‐11).
Soluble anti‐CD28 were added to the CD8^+ cultures to facilitate co‐stimulation. After 40–48 h, supernatants were harvested for mediator analysis and the cells were washed and resuspended in RLT buffer (Qiagen) for RNA isolation.
Analysis of human cytokine panels was carried out using a Luminex assay kit from Merck Millipore (Cat# HCYTMAG‐60K‐PX41) and Mesoscale Discovery (MSD) immunoassay kits (Cat# K211AEB‐2 and K15049D) as recommended in the respective supplier protocols.

[2] = test system: C3H/HeJ mouse model of AA; test: Taqman gene expression in mouse skin; assay type: in vivo; conditions: Mean±SEM
Protocol: RNA was prepared according to a standard phenol‐chloroform total RNA extraction method where skin samples were homogenized in QIAzol® Lysis Reagent (QIAGEN Sciences, Maryland 20847, USA), added chloroform, vortexed and centrifuged for phase separation. The RNA containing phase was ethanol precipitated and purified on an Applied Biosystems 6100 Nucleic Acid Prep Station. RNA integrity was measured on the Fragment Analyzer platform (AATI, IA, USA) using standard sensitivity RNA analysis kit.
cDNA was synthesized from mouse skin RNA using the High Capacity cDNA Reverse Transcription Kit from Life Technologies. Gene expression was performed on the QuantStudio™ 7 Flex Real‐Time PCR System (Applied Biosystems, Foster City, CA, USA) using custom made TaqMan® Array Micro Fluidic Cards. Results were analyzed with the QuantStudio™ 7 Flex Real‐Time PCR System software. Detailed description in Supplementary materials.
RNA extraction: Frozen 20 mg skin biopsies were transferred to 2 mL eppendorf tubes placed on dry ice, added 5 stainless steel beads of 3 mm ø and 750 μL cold QIAzol® Lysis Reagent (QIAGEN Sciences, Maryland 20847, USA). The samples were mounted on a Mixer Mill Tissue Lyser (Retsch GmbH, Haan, Germany) and homogenized for 2 x 5 minutes at 30 Hz, then centrifuged for 1 minute at 6000g, added 150 μL CHCl3, vigorously shaken for 15 seconds and incubated for 3 minutes. After 15 minutes centrifugation at 6000g the aqueous RNA containing phase was transferred to a 96 deep well plate and mixed with an equal volume of 70 % Ethanol. The RNA-Ethanol precipitate was purified and DNase treated on a 6100 Nucleic Acid Prep Station (Applied Biosystems, Foster City, CA, USA). Total RNA was eluted in 100 μL Elution Buffer (Applied Biosystems, Foster City, CA, USA) and the concentrations were measured on the NanoDrop ND-1000 Spectrophotometer (Thermo Fischer Scientific, Wilmington, DE, USA) at 260 nm.
cDNA synthesis: cDNA synthesis was performed using the High Capacity cDNA Reverse Transcription Kit from Life Technologies (Applied Biosystems, Foster City, CA, USA) according to the manufacturer´s instructions. The cDNA samples were diluted with RNase free water to 100 ng/µL, in a later (experiment) to 200 ng/µL.
The gene expression results are shown as log2 Fold Change. With the calibrator group close to zero, up- or down regulation of the target genes are visualized as positive or negative values, making it easier to assess the size of, in particular, the down regulations.

[3] = test system: C3H/HeJ mouse model of AA; test: Cellularity and flow cytometry of spleen and skin draining lymph nodes; assay type: in vivo; conditions: AA mice
Protocol: Cutaneous lymph nodes and spleens from mice treated either orally or topically (treated and untreated side, respectively) were pooled and minced in DPBS/2% FBS/2 mM EDTA, filtered through […] strainers and spun at 350 g for 5 min. Blood was collected in EDTA‐coated tubes and red blood cells were lysed using BD FACS lysing solution (as was red blood cells from spleen single cell suspensions). Cell differential were obtained from haematology analyzer Sysmex XE‐2100 (Sysmex Corporation, Japan). Equal cell numbers for each sample were incubated with anti‐mouse CD16/CD32 block to prevent unspecific binding and then stained for 30 min at 4°C with the following anti‐mouse antibodies (all from BD); FITC CD3e (145‐2C11), APC‐Cy7 TCRβ (H‐57‐597), BV510 or BV786 CD8α (53‐6.7), BV711 NKG2D (Cx5), BUV395 CD4 (GK1.5), BV711 or BV605 CD44 (IM7), BUV395 CD45 (30‐F11), PerCP‐Cy5.5 CD19 (1D3) and PE‐Cy7 CD62L (MEL‐14). […] The cells were analyzed on a BD LSRII flow cytometer and analysis was performed with FlowJo (Tree Star) software.

[4] = C3H/HeJ, mouse, in vivo
[5] = test system: C3H/HeJ mouse model of AA; test: Circulating cytokines in mouse plasma, Luminex; assay type: in vivo; conditions: at 4 weeks
Protocol: A Luminex assay kit from Merck Millipore (Cat# MTH17MAG‐47K) was used and the analysis carried out according to the supplier protocols.

[6] = Local JAK1i group, Mean±95% CI, n=6
[7] = Systemic JAK1i group, Mean±95% CI, n=6

Structure (SMILES): Cc1cnc(Nc2cccnc2F)nc1-c1c[nH]c2c(NC(=O)[C@@H](C)N3CCN(C)CC3)cccc12 [Cmpd A]
- release of TNFα, IL-1RA, IP-10, IL-17 and MIP-1β from PBMC compared with Ruxo and Tofa [1]: significantly differently released
- CD8a expression in skin, fold change (log2) from AA ([2]; 8w off Tx): -0.32 ± 0.45 (0.97, n=6) log2 fold change
- CXCL9 expression in skin, fold change (log2) from AA ([2]; 8w off Tx): -0.33 ± 0.73 (0.96, n=6) log2 fold change
- CXCL10 expression in skin, fold change (log2) from AA ([2]; 8w off Tx): -0.32 ± 0.61 (0.97, n=6) log2 fold change
- CXCL11 expression in skin, fold change (log2) from AA ([2]; 8w off Tx): 0.43 ± 0.73 (0.93, n=6) log2 fold change
- GZMB expression in skin, fold change (log2) from AA ([2]; 8w off Tx): -0.81 ± 0.73 (0.099, n=3) log2 fold change
- ICOS expression in skin, fold change (log2) from AA ([2]; 8w off Tx): -0.05 ± 0.09 (0.34, n=2) log2 fold change
- Krt32 expression in skin, fold change (log2) from AA ([2]; 8w off Tx): -1.44 ± 0.98 (0.062, n=6) log2 fold change
- MX1 expression in skin, fold change (log2) from AA ([2]; 8w off Tx): -0.37 ± 0.41 (0.67, n=6) log2 fold change
- STAT1 expression in skin, fold change (log2) from AA ([2]; 8w off Tx): -0.30 ± 0.28 (0.67, n=6) log2 fold change
- CD8a expression in skin, fold change (log2) from AA ([2]; Systemic JAKi (oral, 4 weeks)): -2.56 ± 0.24 (<0.001, n=6) log2 fold change
- CXCL9 expression in skin, fold change (log2) from AA ([2]; Systemic JAKi (oral, 4 weeks)): -3.83 ± 0.47 (<0.001, n=6) log2 fold change
- CXCL10 expression in skin, fold change (log2) from AA ([2]; Systemic JAKi (oral, 4 weeks)): -3.28 ± 0.42 (<0.001, n=5) log2 fold change
- CXCL11 expression in skin, fold change (log2) from AA ([2]; Systemic JAKi (oral, 4 weeks)): -4.32 ± 0.36 (<0.001, n=5) log2 fold change
- ICOS expression in skin, fold change (log2) from AA ([2]; Systemic JAKi (oral, 4 weeks)): -1.05 ± 0.12 (0.0083, n=4) log2 fold change
- Krt32 expression in skin, fold change (log2) from AA ([2]; Systemic JAKi (oral, 4 weeks)): -3.16 ± 0.13 (<0.001, n=6) log2 fold change
- MX1 expression in skin, fold change (log2) from AA ([2]; Systemic JAKi (oral, 4 weeks)): -3.71 ± 0.21 (<0.001, n=6) log2 fold change
- STAT1 expression in skin, fold change (log2) from AA ([2]; Systemic JAKi (oral, 4 weeks)): -2.29 ± 0.25 (<0.001, n=6) log2 fold change

Structure (SMILES): Cc1cnc(Nc2cc(N3C[C@@H]4C[C@H]3CN4C)cnc2F)nc1N[C@H](C)[C@H](C)CO [Cmpd B, (2S,3R)-3-{[2-({2-fluoro-5-[(1S,4S)-5-methyl-2,5-diazabicyclo[2.2.1]heptan-2-yl]pyridin-3-yl}amino)-5-methylpyrimidin-4-yl]amino}-2-methylbutan-1-ol]
- CD8a expression in skin, fold change (log2) from AA ([2]; Local JAK1i (treated side)): 1.06 ± 0.63 (0.245, n=6) log2 fold change
- CXCL9 expression in skin, fold change (log2) from AA ([2]; Local JAK1i (treated side)): 0.60 ± 0.50 (0.69, n=6) log2 fold change
- CXCL10 expression in skin, fold change (log2) from AA ([2]; Local JAK1i (treated side)): 0.23 ± 0.49 (0.99, n=6) log2 fold change
- CXCL11 expression in skin, fold change (log2) from AA ([2]; Local JAK1i (treated side)): 0.06 ± 0.63 (0.99, n=6) log2 fold change
- GZMB expression in skin, fold change (log2) from AA ([2]; Local JAK1i (treated side)): 0.93 ± 0.35 (0.45, n=5) log2 fold change
- ICOS expression in skin, fold change (log2) from AA ([2]; Local JAK1i (treated side)): 1.33 ± 0.18 (<0.001, n=4) log2 fold change
- Krt32 expression in skin, fold change (log2) from AA ([2]; Local JAK1i (treated side)): -0.81 ± 0.70 (0.49, n=6) log2 fold change
- MX1 expression in skin, fold change (log2) from AA ([2]; Local JAK1i (treated side)): 0.03 ± 0.38 (0.99, n=6) log2 fold change
- STAT1 expression in skin, fold change (log2) from AA ([2]; Local JAK1i (treated side)): 1.09 ± 0.29 (<0.001, n=6) log2 fold change
- CD8a expression in skin, fold change (log2) from AA ([2]; Local JAK1i (untreated side)): 1.02 ± 0.71 (0.80, n=6) log2 fold change
- CXCL9 expression in skin, fold change (log2) from AA ([2]; Local JAK1i (untreated side)): 0.82 ± 0.65 (0.41, n=6) log2 fold change
- CXCL10 expression in skin, fold change (log2) from AA ([2]; Local JAK1i (untreated side)): -0.03 ± 0.74 (0.99, n=6) log2 fold change
- CXCL11 expression in skin, fold change (log2) from AA ([2]; Local JAK1i (untreated side)): 0.08 ± 0.76 (0.99, n=6) log2 fold change
- GZMB expression in skin, fold change (log2) from AA ([2]; Local JAK1i (untreated side)): 0.77 ± 0.37 (0.64, n=5) log2 fold change
- ICOS expression in skin, fold change (log2) from AA ([2]; Local JAK1i (untreated side)): 1.06 ± 0.29 (0.0018, n=5) log2 fold change
- Krt32 expression in skin, fold change (log2) from AA ([2]; Local JAK1i (untreated side)): -0.64 ± 0.71 (0.70, n=6) log2 fold change
- MX1 expression in skin, fold change (log2) from AA ([2]; Local JAK1i (untreated side)): 0.02 ± 0.41 (0.99, n=6) log2 fold change
- STAT1 expression in skin, fold change (log2) from AA ([2]; Local JAK1i (untreated side)): 1.07 ± 0.29 (<0.001, n=6) log2 fold change

- estimated average free exposure in plasma over IC50 [4]: 0.02 fold IC50
- estimated average free exposure in skin over IC50 [4]: 0.43 fold IC50
- estimated average free exposure in plasma over IC50 ([4]; po, 2 weeks): 1.4 fold IC50
- estimated average free exposure in skin over IC50 ([4]; po, 2 weeks): 0.5 fold IC50
Structure (SMILES): COCC(C(=O)Nc1cccc2c(-c3nc(Nc4cccc(S(C)(=O)=O)c4F)ncc3F)c[nH]c12)N1CCN(C)CC1 (stereo not shown) [Cmpd C]
- hypercellularity of skin draining LNs and spleen ([3]; systemic (oral 12.5 mg/kg/day, 2 weeks)): drastically reduced
- hypercellularity of skin draining LNs and spleen ([3]; topical treatment (0.01% cream, 2 weeks)): only marginally affected
- IFN-γ in mouse plasma [5, 6]: 42 (±14) pg/mL
- IL-1β in mouse plasma [5, 6]: 2.4 (±0.5) pg/mL
- IL-2 in mouse plasma [5, 6]: 6.2 (±1.6) pg/mL
- IL-10 in mouse plasma [5, 6]: 2.9 (±1.4) pg/mL
- IL-13 in mouse plasma [5, 6]: 37 (±2.9) pg/mL
- IL-17A in mouse plasma [5, 6]: 15 (±2.4) pg/mL
- IL-22 in mouse plasma [5, 6]: 35 (±25) pg/mL
- IL-23 in mouse plasma [5, 6]: 148 (±95) pg/mL
- IL-33 in mouse plasma [5, 6]: 76 (±58) pg/mL
- TNFα in mouse plasma [5, 6]: 7.3 (±0.8) pg/mL
- IL-6 in mouse plasma ([5]; Local JAK1i group, only one value within detection range): 2.8 (±NA) pg/mL
- IFN-γ in mouse plasma [5, 7]: 49 (±21) pg/mL
- IL-2 in mouse plasma [5, 7]: 4.5 (±1.5) pg/mL
- IL-6 in mouse plasma [5, 7]: 2.9 (±2.3) pg/mL
- IL-10 in mouse plasma [5, 7]: 2.4 (±0.7) pg/mL
- IL-13 in mouse plasma [5, 7]: 33 (±13) pg/mL
- IL-17A in mouse plasma [5, 7]: 15 (±4.2) pg/mL
- IL-22 in mouse plasma [5, 7]: 42 (±31) pg/mL
- IL-23 in mouse plasma [5, 7]: 206 (±333) pg/mL
- IL-33 in mouse plasma [5, 7]: 32 (±17) pg/mL
- TNFα in mouse plasma [5, 7]: 6.3 (±2.0) pg/mL
- IL-1β in mouse plasma ([5]; Systemic JAK1i group, only one value within detection range): 2.0 (±NA) pg/mL
